Measured values taken from US10336739B2, “4-hydroxy-3-(heteroaryl)pyridine-2-one APJ agonists” (BRISTOL-MYERS SQUIBB COMPANY, priority 2015, dated 2019).
pEC50: −log10 of the molar value.

Each compound was assayed against human APJ receptor (Homo sapiens (Human), UniProt P35414) (assay: Intracellular cAMP accumulation assay (APJ hcAMP, HTRF)). Conditions: HEK293 cells stably expressing human APJ receptor; inhibition of forskolin-mediated cAMP production; read-out: Human APJ cAMP EC50 Potency range.
Format: cell-based
Summary of the method: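 HEK293 cells stably expressing human APJ, 5,000 per well, exposed to compound with […] IBMX and 2 μM forskolin for 30 minutes at room temperature. cAMP measured by HTRF after lysis and 60 min detection incubation. EC50 from sigmoidal variable-slope fits of inhibition of forskolin-induced cAMP, quantified against a cAMP standard curve.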

Chain of human APJ receptor (P35414 whole entry): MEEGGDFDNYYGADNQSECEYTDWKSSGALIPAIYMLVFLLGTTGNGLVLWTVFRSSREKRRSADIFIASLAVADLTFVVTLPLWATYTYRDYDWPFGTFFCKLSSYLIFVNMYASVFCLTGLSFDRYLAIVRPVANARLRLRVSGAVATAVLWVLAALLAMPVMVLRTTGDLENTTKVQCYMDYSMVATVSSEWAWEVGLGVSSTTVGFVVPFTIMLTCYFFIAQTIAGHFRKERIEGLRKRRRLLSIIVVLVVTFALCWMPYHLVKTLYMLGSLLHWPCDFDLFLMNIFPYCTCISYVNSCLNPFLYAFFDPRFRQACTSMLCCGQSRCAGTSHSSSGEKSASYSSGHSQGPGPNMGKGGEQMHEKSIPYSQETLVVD

SMILES | pEC50
CCCCc1nc(O)c(-c2nnc(CN(C)C(=O)Cc3ccccc3)o2)c(O)c1-c1c(OC)cccc1OC [Example 155, N-({5-[6-butyl-5-(2,6-dimethoxyphenyl)-2,4-dihydroxypyridin-3-yl]-1,3,4-oxadiazol-2-yl}methyl)-N-methyl-2-phenylacetamide] | 8.00 to 11.00
CCCCc1nc(O)c(-c2nnc(CC(=O)N(CC)CC)o2)c(O)c1-c1c(OC)cccc1OC [Example 177, 2-{5-[6-butyl-5-(2,6-dimethoxyphenyl)-2,4-dihydroxypyridin-3-yl]-1,3,4-oxadiazol-2-yl}-N,N-diethylacetamide] | 8.00 to 11.00
CCOCc1nc(O)c(-c2nnc(Cc3ccc(Cl)cc3)o2)c(O)c1-c1c(O)cccc1OC (single isomer, unassigned) [Example 222, 3-{5-[(4-chlorophenyl)methyl]-1,3,4-oxadiazol-2-yl}-6-(ethoxymethyl)-5-(2-hydroxy-6-methoxyphenyl)pyridine-2,4-diol] | 8.00 to 11.00
CCCCc1nc(O)c(-c2nnc(Cc3ccc(Cl)cc3)o2)c(O)c1-c1c(OC)ccc(F)c1OC (single isomer, unassigned) [Example 218, 6-butyl-3-{5-[(4-chlorophenyl)methyl]-1,3,4-oxadiazol-2-yl}-5-(3-fluoro-2,6-dimethoxyphenyl)pyridine-2,4-diol] | 7.00 to 8.00

Same assay, conditions: HEK293 cells stably expressing human APJ receptor; inhibition of forskolin-mediated cAMP production; read-out: hAPJ cAMP EC50 (nM) Potency range

SMILES | EC50
CCCCc1nc(O)c(-c2nnc(CC(=O)NCc3ccc(OC)cc3)o2)c(O)c1-c1c(OC)cccc1OC [Example 269, 2-{5-[6-butyl-5-(2,6-dimethoxyphenyl)-2,4-dihydroxy-pyridin-3-yl]-1,3,4-oxadiazol-2-yl}-N-[(4-methoxyphenyl)methyl]acetamide] | 0.01 to 10 nM
CCCCc1nc(O)c(-c2nnc(CC(=O)NCc3ccc(N(C)C)cc3)o2)c(O)c1-c1c(OC)cccc1OC [Example 270, 2-{5-[6-butyl-5-(2,6-dimethoxyphenyl)-2,4-dihydroxy-pyridin-3-yl]-1,3,4-oxadiazol-2-yl}-N-{[4-(dimethylamino)phenyl]methyl} acetamide] | 0.01 to 10 nM
CCCCc1nc(O)c(-c2nnc(CC(=O)NCc3ccncc3)o2)c(O)c1-c1c(OC)cccc1OC [Example 268, 2-{5-[6-butyl-5-(2,6-dimethoxyphenyl)-2,4-dihydroxy-pyridin-3-yl]-1,3,4-oxadiazol-2-yl}-N-[(pyridin-4-yl)methyl] acetamide] | 0.01 to 10 nM
CCCCc1nc(O)c(-c2nnc(CC(=O)NCc3ccccc3Cl)o2)c(O)c1-c1c(OC)cccc1OC [Example 265, 2-{5-[6-butyl-5-(2,6-dimethoxyphenyl)-2,4-dihydroxy-pyridin-3-yl]-1,3,4-oxadiazol-2-yl}-N-[(2-chlorophenyl)methyl]acetamide] | 0.01 to 10 nM

Same assay, conditions: HEK293 cells stably expressing human APJ receptor; inhibition of forskolin-mediated cAMP production; read-out: hAPJ cAMP EC50 Potency range

SMILES | pEC50
CCCCc1nc(O)c(-c2nnc(CC(=O)N3CCOCC3)o2)c(O)c1-c1c(OC)cccc1OC [Example 196, 2-{5-[6-butyl-5-(2,6-dimethoxyphenyl)-2,4-dihydroxypyridin-3-yl]-1,3,4-oxadiazol-2-yl}-1-(morpholin-4-yl)ethan-1-one] | 8.00 to 11.00
CCCCc1nc(O)c(-c2nc(Cc3ccc(Cl)cc3)no2)c(O)c1-c1c(OC)cccc1OC [Example 203, 6-butyl-3-{3-[(4-chlorophenyl)methyl]-1,2,4-oxadiazol-5-yl}-5-(2,6-dimethoxyphenyl) pyridine-2,4-diol] | 7.00 to 8.00
CCCCc1nc(O)c(-c2nnc(Cc3ccc(F)c(F)c3)o2)c(O)c1-c1cccc(OCc2ccccc2)c1 [Example 142, 5-[3-(benzyloxy)phenyl]-6-butyl-3-{5-[(3,4-difluorophenyl)methyl]-1,3,4-oxadiazol-2-yl}pyridine-2,4-diol] | 7.00 to 8.00
CCCCc1nc(O)c(-c2nnc(Cc3csc(-c4ccc(Cl)cc4)n3)o2)c(O)c1-c1c(OC)cccc1OC [Example 39, 6-butyl-3-(5-{[2-(4-chlorophenyl)-1,3-thiazol-4-yl]methyl}-1,3,4-oxadiazol-2-yl)-5-(2,6-dimethoxyphenyl) pyridine-2,4-diol] | 7.00 to 8.00
CCCCc1nc(O)c(-c2nnc(CC(=O)OCC)o2)c(O)c1-c1c(OC)cccc1OC [Example 96, ethyl 2-{5-[6-butyl-5-(2,6-dimethoxyphenyl)-2,4-dihydroxypyridin-3-yl]-1,3,4-oxadiazol-2-yl}acetate] | 7.00 to 8.00
CCCCc1nc(O)c(-c2nnc(Cc3ccc(F)c(Cl)c3)o2)c(O)c1-c1c(OC)cccc1OC [Example 70, 6-butyl-3-{5-[(3-chloro-4-fluorophenyl)methyl]-1,3,4-oxadiazol-2-yl}-5-(2,6-dimethoxyphenyl) pyridine-2,4-diol] | 8.00 to 11.00
CCCCc1nc(O)c(-c2nnc(CCc3ccc(C(F)(F)F)cc3)o2)c(O)c1-c1c(OC)cccc1OC [Example 75, 6-butyl-5-(2,6-dimethoxyphenyl)-3-(5-{2-[4-(trifluoromethyl)phenyl]ethyl}-1,3,4-oxadiazol-2-yl)pyridine-2,4-diol] | 7.00 to 8.00
CCCCc1nc(O)c(-c2nnc(Cc3nc(C4CC4)no3)o2)c(O)c1-c1c(OC)cccc1OC [Example 109, 6-butyl-3-{5-[(3-cyclopropyl-1,2,4-oxadiazol-5-yl)methyl]-1,3,4-oxadiazol-2-yl}-5-(2,6-dimethoxyphenyl) pyridine-2,4-diol] | 8.00 to 11.00
CCCCc1nc(O)c(-c2nnc(Cc3cccc(Cl)c3)o2)c(O)c1-c1c(OC)cccc1OC [Example 23, 6-butyl-3-{5-[(3-chlorophenyl)methyl]-1,3,4-oxadiazol-2-yl}-5-(2,6-dimethoxyphenyl) pyridine-2,4-diol] | 8.00 to 11.00
CCCCc1nc(O)c(-c2nnc(COc3ccc(C(F)(F)F)cc3)o2)c(O)c1-c1c(OC)cccc1OC [Example 65, 6-butyl-5-(2,6-dimethoxyphenyl)-3-{5-[4-(trifluoromethyl)phenoxymethyl]-1,3,4-oxadiazol-2-yl}pyridine-2,4-diol] | 7.00 to 8.00
CCCCc1nc(O)c(-c2nnc(CN(C)C(=O)c3ccccn3)o2)c(O)c1-c1c(OC)cccc1OC [Example 157, N-({5-[6-butyl-5-(2,6-dimethoxyphenyl)-2,4-dihydroxypyridin-3-yl]-1,3,4-oxadiazol-2-yl}methyl)-N-methylpyridine-2-carboxamide] | 8.00 to 11.00
CCCCc1nc(O)c(-c2nnc(CCc3ccc(F)c(F)c3)o2)c(O)c1-c1c(OC)cccc1OC [Example 74, 6-butyl-3-{5-[2-(3,4-difluorophenyl)ethyl]-1,3,4-oxadiazol-2-yl}-5-(2,6-dimethoxyphenyl) pyridine-2,4-diol] | 8.00 to 11.00
CCCCc1nc(O)c(-c2nnc(-c3cnccn3)o2)c(O)c1-c1c(OC)cccc1OC [Example 12, 6-butyl-5-(2,6-dimethoxyphenyl)-3-[5-(pyrazin-2-yl)-1,3,4-oxadiazol-2-yl]pyridine-2,4-diol] | 6.52 to 7.00
CCCCc1nc(O)c(-c2nnc(CC(=O)N3CC(F)(F)C3)o2)c(O)c1-c1c(OC)cccc1OC [Example 200, 2-{5-[6-butyl-5-(2,6-dimethoxyphenyl)-2,4-dihydroxypyridin-3-yl]-1,3,4-oxadiazol-2-yl}-1-(3,3-difluoroazetidin-1-yl)ethan-1-one] | 8.00 to 11.00
CCCCc1nc(O)c(-c2nnc(Cc3nc(Cc4ccccc4)no3)o2)c(O)c1-c1c(OC)cccc1OC [Example 108, 3-{5-[(3-benzyl-1,2,4-oxadiazol-5-yl)methyl]-1,3,4-oxadiazol-2-yl}-6-butyl-5-(2,6-dimethoxyphenyl) pyridine-2,4-diol] | 8.00 to 11.00
CCOCc1nc(O)c(-c2nnc(CN3CCCC3=O)o2)c(O)c1-c1c(OC)cccc1OC [Example 112, 1-({5-[5-(2,6-dimethoxyphenyl)-6-(ethoxymethyl)-2,4-dihydroxypyridin-3-yl]-1,3,4-oxadiazol-2-yl}methyl) pyrrolidin-2-one] | 8.00 to 11.00
CCCCc1nc(O)c(-c2nnc(Cc3c(C)n[nH]c3C)o2)c(O)c1-c1c(OC)cccc1OC [Example 36, 6-butyl-5-(2,6-dimethoxyphenyl)-3-{5-[(3,5-dimethyl-1H-pyrazol-4-yl)methyl]-1,3,4-oxadiazol-2-yl}pyridine-2,4-diol] | 7.00 to 8.00
CCCCc1nc(O)c(-c2nnc(CCc3ccccc3)o2)c(O)c1-c1c(OC)cccc1OC [Example 4, 6-butyl-5-(2,6-dimethoxyphenyl)-3-[5-(2-phenylethyl)-1,3,4-oxadiazol-2-yl]pyridine-2,4-diol] | 7.00 to 8.00
CCCCc1nc(O)c(-c2nnc(Cc3ccc(Cl)cc3)o2)c(O)c1-c1c(OC)cccc1OC [Example 8, 6-butyl-3-{5-[(4-chlorophenyl)methyl]-1,3,4-oxadiazol-2-yl}-5-(2,6-dimethoxyphenyl) pyridine-2,4-diol] | 8.00 to 11.00
CCOCc1nc(O)c(-c2nnc(Cn3ccc4ccccc43)o2)c(O)c1-c1c(OC)cccc1OC [Example 136, 5-(2,6-dimethoxyphenyl)-6-(ethoxymethyl)-3-[5-(1H-indol-1-ylmethyl)-1,3,4-oxadiazol-2-yl]pyridine-2,4-diol] | 7.00 to 8.00
CCOCc1[nH]c(=O)c(-c2nnc(Cc3ccc(Cl)nc3)o2)c(O)c1-c1c(OC)cccc1OC [Example 110, 3-{5-[(6-chloropyridin-3-yl)methyl]-1,3,4-oxadiazol-2-yl}-5-(2,6-dimethoxyphenyl)-6-(ethoxymethyl) pyridine-2,4-diol] | 8.00 to 11.00
CCCCc1nc(O)c(-c2nnc(Cc3noc4ccccc34)o2)c(O)c1-c1c(C)cc(C)cc1C [Example 225, 3-[5-(1,2-benzoxazol-3-ylmethyl)-1,3,4-oxadiazol-2-yl]-6-butyl-5-(2,4,6-trimethylphenyl) pyridine-2,4-diol] | 7.00 to 8.00
CCOCc1nc(O)c(-c2nnc(Cc3ccc(Cl)nc3)o2)c(O)c1-c1c(OC)cc(F)cc1OC [Example 216, 3-{5-[(6-chloropyridin-3-yl)methyl]-1,3,4-oxadiazol-2-yl}-6-(ethoxymethyl)-5-(4-fluoro-2,6-dimethoxyphenyl) pyridine-2,4-diol] | 8.00 to 11.00
